In brackets after ≈: the same amount, converted by molar mass.
Columns and labels:
Assay type in all cases: functional, organism-based
Plasmodium falciparum [1] = experiment: Antimalarial activity against Chloroquine resistant Plasmodium falciparum W2 assessed as parasitic growth inhibition measured after 48 hrs by fluorescence based assay; settings: W2, 48 h
Plasmodium falciparum [2] = experiment: Antimalarial activity against Chloroquine sensitive Plasmodium falciparum 3D7 assessed as parasitic growth inhibition measured after 3 days by ELISA assay; settings: 3D7, 72 h
Plasmodium falciparum [3] = experiment: Antimalarial activity against Chloroquine resistant Plasmodium falciparum Dd2 assessed as parasitic growth inhibition measured after 3 days by ELISA assay; settings: Dd2, 72 h
Plasmodium falciparum [4] = experiment: Antimalarial activity against Chloroquine resistant Plasmodium falciparum assessed as parasitic growth inhibition by microscopic anlaysis
Plasmodium falciparum [5] = experiment: Antimalarial activity against Plasmodium falciparum Dd2 assessed as parasitic growth inhibition
Plasmodium falciparum [6] = experiment: Antimalarial activity against Plasmodium falciparum K1 assessed as parasitic growth inhibition
Plasmodium falciparum [7] = experiment: Antimalarial activity against Plasmodium falciparum 3D7 assessed as parasitic growth inhibition
Plasmodium falciparum [8] = experiment: Antimalarial activity against Chloroquine-pyrimethamine resistant Plasmodium falciparum W2 assessed as parasitic growth inhibition measured after 48 hrs; settings: W2, 48 h
Plasmodium falciparum [9] = experiment: Antimalarial activity against Chloroquine-pyrimethamine sensitive Plasmodium falciparum D6 assessed as parasitic growth inhibition measured after 48 hrs; settings: D6, 48 h
Plasmodium falciparum [10] = experiment: Antimalarial activity against Chloroquine sensitive Plasmodium falciparum assessed as parasitic growth inhibition
Plasmodium falciparum [11] = experiment: Antimalarial activity against Chloroquine sensitive Plasmodium falciparum RKL-2 assessed as parasitic growth inhibition measured after 36 to 40 hrs by Giemsa staining based assay
Plasmodium falciparum [12] = experiment: Antimalarial activity against Plasmodium falciparum assessed as parasitic growth inhibition
Plasmodium falciparum [13] = experiment: Antimalarial activity against Chloroquine resistant Plasmodium falciparum W2 assessed as parasitic growth inhibition
Plasmodium falciparum [14] = experiment: Antimalarial activity against Chloroquine sensitive Plasmodium falciparum D6 assessed as parasitic growth inhibition
Plasmodium falciparum [15] = experiment: Antimalarial activity against chloroquine sensitive Plasmodium falciparum 3D7 assessed as parasitic growth inhibition by SYBR Green I dye based assay

SMILES: O=C1c2ccc(N3CCCCC3)cc2C(=O)N1CCCCNc1ccnc2cc(Cl)ccc12
- IC50 (Plasmodium falciparum [1]): 77 nM

SMILES: COc1cc(NC(C)CCCNC(=O)CCCC(=O)NO)c2ncccc2c1 (configuration not stated)
- IC50 (Plasmodium falciparum [2]): 400 nM
- IC50 (Plasmodium falciparum [3]): 1900 nM

SMILES: O=C(NNC(=S)Nc1ccccc1)c1cc(-c2c(F)cccc2F)nc2ccc(C(F)(F)F)cc12
- IC50 (Plasmodium falciparum [4]): 0.19 µg/mL

SMILES: O=C1c2ccc(N3CCN(CCO)CC3)cc2C(=O)N1CCCCNc1ccnc2cc(Cl)ccc12
- IC50 (Plasmodium falciparum [1]): 14 nM

SMILES: O=C1c2ccc(N3CCN(CCO)CC3)cc2C(=O)N1CCCCCCNc1ccnc2cc(Cl)ccc12
- IC50 (Plasmodium falciparum [1]): 15 nM

SMILES: O=C(NNC(=S)Nc1c(F)cccc1F)c1cc(-c2ccccc2Br)nc2c(Cl)cc(C(F)(F)F)cc12
- IC50 (Plasmodium falciparum [4]): 0.36 µg/mL

SMILES: O=C1c2cccc(N3CCOCC3)c2C(=O)N1CCCCCCNc1ccnc2cc(Cl)ccc12
- IC50 (Plasmodium falciparum [1]): 25 nM

SMILES: O=C1c2ccc(N3CCOCC3)cc2C(=O)N1CCCCCCNc1ccnc2cc(Cl)ccc12
- IC50 (Plasmodium falciparum [1]): 19 nM

SMILES: O=C(NNC(=S)Nc1cc(Cl)cc(Cl)c1)c1cc(-c2ccc(F)cc2F)nc2cc(Cl)c(F)cc12
- IC50 (Plasmodium falciparum [4]): 0.17 µg/mL

SMILES: C[C@H]1[C@H](OC(=O)CCC(=O)OCCc2cn(-c3ccnc4cc(Cl)ccc34)nn2)O[C@@H]2O[C@]3(C)CC[C@H]4[C@H](C)CC[C@@H]1[C@@]24OO3
- EC50 (Plasmodium falciparum [5]): 4.9 nM
- EC50 (Plasmodium falciparum [6]): 2.6 nM
- EC50 (Plasmodium falciparum [7]): 8 nM

SMILES: N=C(N=C(N)N)SCCNc1ccnc2cc(C(F)(F)F)ccc12
- IC50 (Plasmodium falciparum [8]): 2950 nM
- IC50 (Plasmodium falciparum [9]): 1860 nM

SMILES: CC1=C(C(=O)Nc2ccc(Br)cn2)C(c2cn(-c3ccccc3)nc2-c2ccc(Cl)cc2)NC(=O)N1 (configuration not stated)
- IC50 (Plasmodium falciparum [10]): 0.03 µg/mL (≈ 0.0532 µM)

SMILES: N=C(N=C(N)N)SCCCCNc1ccnc2cc(C(F)(F)F)ccc12
- IC50 (Plasmodium falciparum [8]): 6060 nM
- IC50 (Plasmodium falciparum [9]): 2800 nM

SMILES: CC.Fc1ccc(Nc2nc(NCCCNc3ccnc4cc(Cl)ccc34)nc(Nc3ccc(F)cc3)n2)cc1
- IC50 (Plasmodium falciparum [11]): 51.5 µg/mL

SMILES: C[C@H]1[C@@H](OCCCCc2cn(-c3cccc4cc(Cl)ccc34)nn2)O[C@@H]2O[C@]3(C)CC[C@H]4[C@H](C)CC[C@@H]1[C@@]24OO3
- EC50 (Plasmodium falciparum [5]): 6.1 nM
- EC50 (Plasmodium falciparum [6]): 3.7 nM
- EC50 (Plasmodium falciparum [7]): 8.4 nM

SMILES: CC1=C(C(=O)Nc2ccccn2)C(c2cn(-c3ccccc3)nc2-c2ccc(F)cc2)NC(=O)N1 (configuration not stated)
- IC50 (Plasmodium falciparum [10]): 0.03 µg/mL (≈ 0.064 µM)

SMILES: O=C1c2ccc(N3CCN(CCO)CC3)cc2C(=O)N1CCNc1ccnc2cc(Cl)ccc12
- IC50 (Plasmodium falciparum [1]): 44 nM

SMILES: N=C(N=C(N)N)SCCCNc1ccnc2cc(Cl)ccc12
- IC50 (Plasmodium falciparum [8]): 2310 nM
- IC50 (Plasmodium falciparum [9]): 1560 nM

SMILES: Cc1nc2ccccc2c(C)c1C(=O)NNC(=S)Nc1ccc(Cl)c(Cl)c1
- IC50 (Plasmodium falciparum [12]): 0.19 µg/mL (≈ 0.453 µM)

SMILES: Cc1nc2ccccc2c(C)c1C(=O)NNC(=S)NC(C)(C)C
- IC50 (Plasmodium falciparum [12]): 0.25 µg/mL (≈ 0.757 µM)

SMILES: COc1cc(NC(C)CCCNC(=O)c2ccc(C(=O)NO)cc2)c2ncccc2c1 (configuration not stated)
- IC50 (Plasmodium falciparum [2]): 600 nM
- IC50 (Plasmodium falciparum [3]): 1200 nM

SMILES: O=C1c2ccc(N3CCOCC3)cc2C(=O)N1CCCCNc1ccnc2cc(Cl)ccc12
- IC50 (Plasmodium falciparum [1]): 49 nM

SMILES: Cc1cc(NCCCCCCNc2ccnc3cc(Cl)ccc23)nc(Nc2ccc(C(=O)N3CCSCC3)cc2)n1
- IC50 (Plasmodium falciparum [13]): 33 nM
- IC50 (Plasmodium falciparum [14]): 32 nM

SMILES: O=C1c2cccc(N3CCCCC3)c2C(=O)N1CCCCCCNc1ccnc2cc(Cl)ccc12
- IC50 (Plasmodium falciparum [1]): 75 nM

SMILES: N=C(N=C(N)N)SCCCNc1ccnc2cc(C(F)(F)F)ccc12
- IC50 (Plasmodium falciparum [8]): 3210 nM
- IC50 (Plasmodium falciparum [9]): 2850 nM

SMILES: CCCN1C(=O)c2ccc3c4c(ccc(c24)C1=O)C(=O)C(CNc1c2ccc(Cl)cc2nc2ccc(OC)cc12)C3=O
- IC50 (Plasmodium falciparum [15]): 3.65 nM

SMILES: CC1=C(C(=O)Nc2ccc(Br)cn2)C(c2cn(-c3ccccc3)nc2-c2ccc([N+](=O)[O-])cc2)NC(=O)N1 (configuration not stated)
- IC50 (Plasmodium falciparum [10]): 0.06 µg/mL (≈ 0.104 µM)

SMILES: Fc1ccc(Nc2nc(NCCCNc3ccnc4cc(Cl)ccc34)nc(Nc3ccc(F)c(Cl)c3)n2)cc1Cl
- IC50 (Plasmodium falciparum [11]): 56 µg/mL (≈ 93 µM)

SMILES: CCCCNc1c2ccc(Cl)cc2nc2ccc(OC)cc12
- IC50 (Plasmodium falciparum [15]): 26.4 nM

SMILES: COc1ccc2nc3cc(Cl)ccc3c(NCC3C(=O)c4ccc5c6c(ccc(c46)C3=O)C(=O)N(CCn3ccnc3)C5=O)c2c1
- IC50 (Plasmodium falciparum [15]): 8.44 nM

SMILES: CC1=C(C(=O)Nc2ccc(Br)cn2)C(c2cn(-c3ccccc3)nc2-c2ccc(F)cc2)NC(=O)N1 (configuration not stated)
- IC50 (Plasmodium falciparum [10]): 0.07 µg/mL (≈ 0.128 µM)

— ChEMBL document CHEMBL5329153, “Is structural hybridization invoking new dimensions for antimalarial drug discovery research?” (RSC Med Chem, 2023)
